System: PTH1R Gas/cAMP signaling
Assay: PTH-stimulated cAMP in articular cartilage explants of sham or DMM mice treated with paroxetine
Parameters: species or system mouse
Details: paroxetine ip 5 mg/kg/day for 8 weeks, cartilage stimulated with PTH ex vivo, 30 minutes
Description: Methods: Destabilization of the medial meniscus (DMM) surgery was used to simulate clinical post-traumatic OA. First, we determined the role of GRK2 inhibition in PTH1R Gas-cAMP signaling: 12 week old male mice underwent sham or DMM surgery and were treated with either vehicle or the GRK2 inhibitor “paroxetine” (ip, 5 mg/kg/day), treatment was initiated at the time of surgery and continued daily until 8 weeks. Knees were harvested and articular cartilage was obtained for ex vivo analysis of Gas activity. In ex vivo culture, cartilage explants were treated with PTH as an agonist to stimulate PTH1R-Ga-cAMP signaling. Thirty minutes following PTH stimulation, cartilage tissue was homogenized and cAMP levels were measured. Then, we determined the role of GRK2 inhibition in recovering or even potentiating PTH1R signaling in OA cartilage: 12 week old male mice underwent sham or DMM surgery, and received treatment with vehicle, PTH (sc, 40 μg/kg/day) alone, the GRK2 inhibitor “paroxetine3” (ip, 5 mg/kg/day) alone, or their combination. Treatment was initiated at week 8 following DMM surgery, where OA is in progress, and continued until week 12 where mice were sacrificed. […] Results are expressed as mean values+s.e.m. with an N=5-8 mice per experimental group. […]

In the case of Fc1ccc([C@@H]2CCNC[C@H]2COc2ccc3c(c2)OCO3)cc1 [paroxetine], the “PTH/PTH1R-mediated cAMP production” value (DMM mice) was “recovered” and the “PTH/PTH1R-mediated cAMP production” value (sham mice) was “potentiated”.

From patent publication US20230404989A1, “GRK2 INHIBITION BY PAROXETINE AMELIORATES OSTEOARTHRITIS” (THE PENN STATE RESEARCH FOUNDATION, priority 2020, published 2023)
